In patent US8604034B2, “Substituted imidazo[1,2-α]pyrrolo[1,2-d]pyrazines for treating respiratory syncytial virus (RSV) infections” (Biota Scientific Management Pty Ltd., priority 2010, dated 2013) one finds EC50 data, which are given here for 14 molecules.

Where two headings read alike, the source gives them in different places.

The test system of this test is RSV A2. The test can be described thus: RSV antiviral cytopathic effect (CPE) assay. It counts as cell-based. Conditions: human respiratory syncytial virus, HEp-2, 120 h, HEp2 cells infected with RSV A2 (moi ~0.01), 5 days, MTT readout. The essentials:
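HEp2 cells infected with RSV A2 (moi ~0.01) and incubated with serially diluted compound for 5 days at 37 °C. CPE read by MTT metabolism (absorbance 540/650 nm); uninfected cells gave cytotoxicity. EC50 and CC50 obtained by non-linear regression.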

Setting [1] is: read-out: Activity Range (RSV A2 EC50).
[2] abbreviates: mean EC50, read-out: RSV A2 EC50.

With `C#Cc1ccc2n1CC1(c3ccc(OC)cc3)N(C(=O)c3conc3C)CCN1C2=O` (stereo not drawn) [Compound 108, 8-ethynyl-10a-(4-methoxyphenyl)-1-[(3-methyl-1,2-oxazol-4-yl)carbonyl]-2,3,10,10a-tetrahydro-1H,5H-imidazo[1,2-a]pyrrolo[1,2-d]pyrazin-5-one], the EC50 reads like this: under setting [1], below 0.049 µM; under setting [2], 0.017 µM.
In the same order, the values of `Cc1ccc(C23Cn4nc(-c5ccccn5)cc4C(=O)N2CCN3C(=O)c2conc2C)cc1` (stereo not drawn) [Compound 139] are 0.05 to 0.099 µM and 0.066 µM.
In the same order, the values of `Cc1ccc(C23Cn4c(C#N)ccc4C(=O)N2CCN3C(=O)c2conc2C)cn1` (stereo not drawn) [Compound 126] are below 0.049 µM and 0.0078 µM.
Consider `Cc1nocc1C(=O)N1CCN2C(=O)c3cccn3CC12c1ccc(OCCO)cc1` (stereo not drawn) [Compound 109, 10a-[4-(2-hydroxyethoxy)phenyl]-1-[(3-methyl-1,2-oxazol-4-yl)carbonyl]-2,3,10,10a-tetrahydro-1H,5H-imidazo[1,2-a]pyrrolo[1,2-d]pyrazin-5-one], for which the EC50 by setting is: under setting [1], 0.1 to 0.499 µM; under setting [2], 0.3 µM.
Turning to `COc1ccc(C23Cn4c(cccc4=O)C(=O)N2CCN3C(=O)c2conc2C)cc1` (stereo not drawn) [Compound 149], the EC50 is, setting by setting: under setting [1], 0.1 to 0.499 µM; under setting [2], 0.13 µM.
`Cc1nocc1C(=O)N1CCN2C(=O)c3cc(-c4ccccc4)nn3CC12c1ccc(Cl)cc1` (stereo not drawn) [Compound 64]: the EC50 was 0.5 to 10 µM under setting [1] and 8.6 µM under setting [2].
Regarding `COc1ccc(C23Cn4cccc4C(=O)N2CCN3S(=O)(=O)c2ccccc2)cc1` (stereo not drawn) [Compound 131], the EC50 under setting [1] was above 10 µM.
On to `COc1ccc(C23Cn4cc(F)cc4C(=O)N2CCN3C(=O)c2conc2C(F)(F)F)cc1` (stereo not drawn) [Compound 66], for which the EC50 was below 0.049 µM under setting [1] and 0.015 µM under setting [2].
In the same order, the values of `Cc1ccc(C23Cn4c(C)ccc4C(=O)N2CCN3C(=O)c2conc2C)cn1` (stereo not drawn) [Compound 151] are below 0.049 µM and 0.0087 µM.
In the case of `COc1ccc(C23Cn4cc(-c5ccnn5C)cc4C(=O)N2CCN3C(=O)c2conc2C)cc1` (stereo not drawn) [Compound 87], the EC50 was 0.05 to 0.099 µM under setting [1] and 0.5 µM under setting [2].
Taken in the same sequence, the figures for `Cc1nocc1C(=O)N1CCN2C(=O)c3cccn3CC12c1ccc(C(F)(F)F)nc1` (stereo not drawn) [Compound 105] were 0.1 to 0.499 µM and 0.13 µM.
With `COc1ccc(C23Cn4cc(-c5cccnc5)cc4C(=O)N2CCN3C(=O)c2conc2C)cc1` (stereo not drawn) [Compound 83], the EC50 runs as follows: under setting [1], 0.05 to 0.099 µM; under setting [2], 0.12 µM.
Regarding `Cc1cnc(C23Cn4cccc4C(=O)N2CCN3C(=O)c2conc2C)cn1` (stereo not drawn) [Compound 114], the EC50 under setting [1] was below 0.049 µM and the EC50 under setting [2] is 0.039 µM.
With `Cc1ccc(C23Cn4cccc4C(=O)N2CCN3C(=O)c2conc2C)cc1` (stereo not drawn) [Compound 9], the EC50 is, setting by setting: under setting [1], below 0.049 µM; under setting [2], 0.013 µM.
